Data as given in US20230064307A1, “Pharmaceutical composition to destabilize abnormal methylation enzymes and use thereof” (priority 2021, published 2023).
Read-outs that look alike come from different tables or passages of the source.

Key:
cells with abnormal MEs [1] = assay: Differentiation inducer (DI) activity, ED25/ED50/ED75; type: cell-based
cells with abnormal MEs [2] = assay: Differentiation helper inducer (DHI) potency, RI0.5 (reductive index); type: cell-based
Description: DHI was our invention, which was the term we created. DHls are inhibitors of individual enzymes of MEs. Rl0.5 was the method we developed for the measurement of potency as DHI [67].

Water solubility = type: physicochemical
cells with abnormal MEs [3] = assay: Helping role of DHI to boost the activity of DI, in cell culture (% NBT+); type: cell-based
Description: (§1) DHI was our invention, which was the term we created. DHls are inhibitors of individual enzymes of MEs. Rl0.5 was the method we developed for the measurement of potency as DHI [67]. Inhibitors of MT and SAHH are better than inhibitors of MAT to function as DHIs.

MAT = molecular target: T1, MAT (Homo sapiens, UniProt P31153); assay: Helping role of DHI to boost the activity of DI, in cell culture (Km, Vmax of enzyme from treated cells); type: cell-based
T1 construct: endogenous in cells
Description: as §1

MEs (MAT-MT-SAHH) = molecular target: T2, MEs (MAT-MT-SAHH) (Rattus norvegicus, UniProt P10760); assay: Testosterone administration, sedimentation profiles of MEs from long-term hormone-depleted prostate (FIG. 1); type: in vivo; conditions: hypophysectomized rats, daily sc 1 mg for 3 days; single peak, intact ternary MEs
T2 construct: Cytosol extracts were prepared from prostates of each group; from tissue; host or cells: prostate cytosol of hypophysectomized rats
T2 sequence (P10760 1-432): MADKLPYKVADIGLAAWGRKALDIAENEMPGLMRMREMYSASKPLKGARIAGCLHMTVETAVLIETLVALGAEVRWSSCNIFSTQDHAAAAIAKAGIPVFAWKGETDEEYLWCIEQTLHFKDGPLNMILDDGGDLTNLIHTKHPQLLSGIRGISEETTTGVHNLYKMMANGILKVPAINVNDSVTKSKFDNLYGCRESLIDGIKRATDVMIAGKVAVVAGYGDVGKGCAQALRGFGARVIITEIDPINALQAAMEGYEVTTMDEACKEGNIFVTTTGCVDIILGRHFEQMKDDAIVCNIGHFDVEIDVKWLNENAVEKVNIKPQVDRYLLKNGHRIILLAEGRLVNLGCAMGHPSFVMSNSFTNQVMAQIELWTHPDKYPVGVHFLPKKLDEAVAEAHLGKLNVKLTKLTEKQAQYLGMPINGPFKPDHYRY
Description: Ten weeks after hypophysectomy, rats were divided into two groups. One group (b) received daily sc injection of I mg testosterone propionate dissolved in 0.25 ml of sesame oil for 3 days. The other group (a) was control without treatment. Cytosol extracts were prepared from prostates of each group with 5 volume of extraction buffer 0.05 M Tris HCl, pH 7.5, 50 mM KCl, 0.5 mM MgCl2. 0.1 ml of cytosol extracts were layered onto 5-20% linear sucrose density gradient for sedimentation analyses.

malignant brain tumors = conditions: in vivo; cited from earlier work
[4] = potency as DHI, RI0.5 is equivalent to ED25 of DI

T1 sequence (P31153 whole entry): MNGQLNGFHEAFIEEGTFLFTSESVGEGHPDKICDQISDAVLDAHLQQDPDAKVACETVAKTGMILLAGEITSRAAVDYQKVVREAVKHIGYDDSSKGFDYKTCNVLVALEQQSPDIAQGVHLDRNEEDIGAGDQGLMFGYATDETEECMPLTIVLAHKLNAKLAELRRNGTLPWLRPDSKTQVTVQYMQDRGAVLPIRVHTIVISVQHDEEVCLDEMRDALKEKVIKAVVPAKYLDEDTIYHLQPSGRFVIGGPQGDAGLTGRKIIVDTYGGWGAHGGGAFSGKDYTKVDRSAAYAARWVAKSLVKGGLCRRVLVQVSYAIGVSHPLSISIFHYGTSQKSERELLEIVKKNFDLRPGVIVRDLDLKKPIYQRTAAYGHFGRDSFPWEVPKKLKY

CCCCC(C)(C)[C@H](O)/C=C/[C@H]1[C@H](O)CC(=O)[C@@H]1C/C=C\CCCC(=O)O [16, 16-dimethylPGE2, 16,16-dimethylprosglandin E2] gave an ED25 (cells with abnormal MEs [1]) of 10.8 µM and an ED75 (cells with abnormal MEs [1]) of 30.1 µM.
Compound CCCCC/C=C\C/C=C\C/C=C\C/C=C\CCCC(=O)O [AA, arachidonic acid] has an ED25 (cells with abnormal MEs [1]) of 24.0 µM.
Work on O=[As]O[As]=O (stereo not shown) [AS2O3] yielded an RI0.5 (cells with abnormal MEs [2]; [4]) of 0.28 µM.
CC1=C(/C=C/C(C)=C/C=C/C(C)=C/C(=O)O)C(C)(C)CCC1 [ATRA, all-trans retinoic acid] gave an ED25 (cells with abnormal MEs [1]) of 0.18 µM and an ED75 (cells with abnormal MEs [1]) of 0.75 µM.
C/C(=C\C(=O)Nc1ccccc1C(=O)O)c1ccc2ccccc2c1 [BIBR1532] showed an ED25 (cells with abnormal MEs [1]) of 32.3 µM and an ED75 (cells with abnormal MEs [1]) of 55.1 µM.
In the case of CCCCC1C(=O)CC[C@H]2[C@@H]1CC(=O)[C@@H]2C/C=C\CCCC(=O)O (stereo partly shown) [BicycloPGE2, bicycloprostaglandin E2], the ED25 (cells with abnormal MEs [1]) is reported as 21.0 µM.
For COc1cc2c(cc1O)C[C@H]1c3c(cc(O)c(OC)c3-2)CCN1C [Boldine], the ED25 (cells with abnormal MEs [1]) was 60.1 µM and the ED75 (cells with abnormal MEs [1]) was 94.2 µM.
Compound [Cl-].[Cl-].[Co+2] [CoCl2] has an RI0.5 (cells with abnormal MEs [2]) of 0.62 µM.
In the case of COc1cc(/C=C/C(=O)CC(=O)/C=C/c2ccc(O)c(OC)c2)ccc1O [Curcumin], the water solubility (Water solubility) is reported as “not good”.
With CN(C)C=O [DMFA, dimethylformamide] the “% NBT+” value (cells with abnormal MEs [3]; DMFA, 0.3%) was 14%, the Km (MAT; in cell culture, DMFA, 0.3%) was 16.4 µM and the “Vmax (% of control)” value (MAT; in cell culture, DMFA, 0.3%) was 78 % of control.
In the case of O=C(O[C@@H]1Cc2c(O)cc(O)cc2O[C@@H]1c1cc(O)c(O)c(O)c1)c1cc(O)c(O)c(O)c1 [Epigallocatechin gallate], the RI0.5 (cells with abnormal MEs [2]; [4]) is reported as 0.62 µM.
With C/C=C1\C(=O)C[C@H]2[C@@H]3CCC4=CC(=O)CC[C@]4(C)[C@H]3CC[C@]12C [Gugulsterone] the RI0.5 (cells with abnormal MEs [2]; [4]) was 1.59 µM.
For O=C(O)Cc1ccccc1 [PA, phenylacetate], the “% NBT+” value (cells with abnormal MEs [3]; PA, 4 mM) was 7%, the Km (MAT; in cell culture, PA, 4 mM) was 20.3 µM and the Vmax (% of control) at 4000 µM (MAT; read-out: Vmax (% of control)) was 88%.
For CCCCC[C@H](O)/C=C/[C@H]1[C@H](O)CC(=O)[C@@H]1C/C=C\CCCC(=O)O [PGE2, prostaglandin E2], the ED25 (cells with abnormal MEs [1]) was 20.6 µM and the ED75 (cells with abnormal MEs [1]) was 46.5 µM.
For CCCCC[C@H](O)/C=C/[C@H]1C(=O)C=C[C@@H]1C/C=C\CCCC(=O)O [PGJ2, prostaglandin J2], the ED25 (cells with abnormal MEs [1]) was 7.9 µM and the ED75 (cells with abnormal MEs [1]) was 20.5 µM.
In the case of CC(=O)[C@H]1CC[C@H]2[C@@H]3CC=C4C[C@@H](O)CC[C@]4(C)[C@H]3CC[C@]12C [Pregnenolone], the water solubility (Water solubility) is reported as “not good” and the RI0.5 (cells with abnormal MEs [2]; [4]) is reported as 7.16 µM.
With CC1=C(/C=C/C(C)=C/C=C/C(C)=C/C(=O)O)C(C)(C)CCC1 [RA, retinoic acid] the “% NBT+” value (cells with abnormal MEs [3]; RA, 0.15 µM) was 16%, the Km (MAT; in cell culture, RA, 0.15 µM, read-out: Km) was 17.5 µM and the remaining activity at 0.15 µM (MAT; in cell culture, RA, 0.15 µM, read-out: Vmax (% of control)) was 60%.
Compound O=[Se](O)O [Selenite] has an RI0.5 (cells with abnormal MEs [2]; [4]) of 19.7 µM.
For C=CC1=C(C)C(=O)N=C1C=c1[nH]c(=Cc2[nH]c(O)c(C)c2CCC(=O)O)c(CCC(=O)O)c1C [Uroerythrin], the RI0.5 (cells with abnormal MEs [2]; [4]) was 1.75 µM.
In the case of C=C1CC[C@H](O)C/C1=C/C=C1\CCC[C@]2(C)[C@@H]([C@H](C)CCCC(C)C)CC[C@@H]12 [Vitamin D3], the RI0.5 (cells with abnormal MEs [2]; [4]) is reported as 0.61 µM.
Cc1ccc(Nc2nccc(N(C)c3ccc4c(C)n(C)nc4c3)n2)cc1S(N)(=O)=O.Cl [Votrient] showed an RI0.5 (cells with abnormal MEs [2]; [4]) of 10.1 µM.
In the case of CCC(=O)O[C@H]1CC[C@H]2[C@@H]3CCC4=CC(=O)CC[C@]4(C)[C@H]3CC[C@]12C [testosterone propionate], the “sedimentation of MEs (MAT, MT, SAHH) of prostate cytosol” value (MEs (MAT-MT-SAHH)) is reported as 8 S.
With CC[C@H](CC[C@@H](C)[C@H]1CC[C@H]2[C@@H]3CC=C4C[C@@H](O)CC[C@]4(C)[C@H]3CC[C@]12C)C(C)C [ß-sitoisterol] the RI0.5 (cells with abnormal MEs [2]; [4]) was 1.72 µM.
For Phenylbutyric acid, the “response of malignant brain tumors” value (malignant brain tumors) is given as “responded very well” and the RI0.5 (cells with abnormal MEs [2]; [4]) is given as 970 µM.
In the case of Tetradecanoyl phorbol acetate [TPA], the ED25 (cells with abnormal MEs [1]) is reported as 0.00017 µM and the ED75 (cells with abnormal MEs [1]) is reported as 0.00036 µM.
